Experiments:
[1] = biological target: Mtb DnaK oligomers and DnaK-GrpE complex (Mycobacterium tuberculosis, UniProt P9WMJ9, T175A); assay type: binding
[2] = biological target: full-length apo DnaK (DnaK^FL) (Mycobacterium tuberculosis, UniProt P9WMJ9, T175A); assay type: binding
[3] = test system: DnaK^NBD; assay type: binding; conditions: ITC
[4] = biological target: apo, ATP-bound or ADP-bound DnaK T175A (Mycobacterium tuberculosis, UniProt P9WMJ9, T175A)
[5] = biological target: Mtb DnaK mutants (Mycobacterium tuberculosis, UniProt P9WMJ9); assay type: biochemical
[6] = biological target: Mtb DnaK mutants (Mycobacterium tuberculosis, UniProt P9WMJ9, R127A); assay type: biochemical
[7] = biological target: Mtb DnaK mutants (Mycobacterium tuberculosis, UniProt P9WMJ9, E514A); assay type: biochemical
[8] = biological target: Mtb DnaK Phe400Ala, Thr401Ala (Mycobacterium tuberculosis, UniProt P9WMJ9, F400A); assay type: binding

Which DnaK-GrpE complex formation [1] does the source give for `CNC(=O)[C@H]1O[C@@H](n2cnc3c(NCc4cccc(I)c4)nc(Cl)nc32)[C@H](O)[C@@H]1O` [MECA, 2Cl-IB-MECA] here?
The DnaK-GrpE complex formation was “not affected”.

And the “binding to DnaK alone” value [2]?
Its value is “does not bind to DnaK alone”.

`CCC[C@H](NC(=O)[C@@H]1[C@H]2CCC[C@H]2CN1C(=O)[C@@H](NC(=O)[C@@H](NC(=O)c1cnccn1)C1CCCCC1)C(C)(C)C)C(=O)C(=O)NC1CC1` [TP, Telaprevir] was tested. Which “oligomeric state of apo DnaK” value [1] did it give?
The value was “inhibited formation of dimers and higher order oligomers”.

And the “stoichiometry TP: DnaK” value [2]?
Its value is ~ 0.5.

What about the “interaction with DnaK^NBD” value [3] of the same compound?
The value was “no interaction”.

And the “cleavage of DnaK by proteinase K” value [4]?
The value was “protects full-length DnaK from cleavage”.

What about the “ATPase activity of DnaK lacking last ~110 residues (A513-K625)” value [5] of the same compound?
The value was “still disrupted ATPase activity”.

What about the “ATPase activity of DnaK Arg127Ala with excess TP” value [6] of the same compound?
The value was “tolerance to excess TP”.

And the “increase in the IC50 value compared to wild-type” value [7]?
The value was 1.4 fold.

How did the “EC50 for Phe400Ala relative to WT” value [8] turn out when “FL-β-Ala-Asn-Arg-Leu-Leu-Leu-Thr-Gly-OH [FL-NR]” was run?
The value was ~ 40 fold.
